From US7071231B2, “Naphthalene ureas as glucose uptake enhancers” (Telik, Inc., priority 1999, dated 2006)

Tested on: 3T3 L1 fibroblasts
Assay: Glucose transport activity assay (14C-2-deoxy-D-glucose uptake)
Format: cell-based
Settings: Mus musculus, 3T3-L1, read-out: Concentration (μM) to reach >150% activity of vehicle control
Experimental: Glucose Transport Activity Assay.
Stimulation of the insulin receptor leads to the transport of glucose from the blood into cells, thus modulating blood glucose levels. 3T3 L1 fibroblasts (ATCC) were grown in Dulbecco's modified Eagle's medium (DMEM) with 10% fetal bovine serum (FBS). The cells were plated at a density of 3×10^4 cells/well in 24-well plates. Two days after confluence was reached, the cells were treated for 3 days with 0.5 mM isobutylmethylxanthine (IBMX), 1 μM dexamethasone, and 1.7 μM insulin. The cells were then transferred to DMEM with 10% FBS and supplemented with 1.7μM insulin for 2 more days. The cells were maintained in DMEM with 10% FBS for an additional 4 days. Finally the cells were serum-starved overnight in 0.1% bovine serum albumin (BSA) in DMEM.
The following day, the medium was replaced with 150 mM NaCl, 1.7 mM KCl, 0.9 mM CaCl2, K2HPO4 (pH 7.4) to which were added either the experimental compounds or their vehicle (DMSO). Insulin or its vehicle (0.01% BSA) was diluted in the assay buffer (containing test compound or vehicle, respectively) to final concentration of […]. After incubation for 30 min at 37° C., 5 μCi/ml ^14C-2-deoxy-D-glucose was added, and the incubation was continued for additional 30 min at 37° C. The cells were then washed 3 times with ice-cold PBS/20 mM glucose and lysed in 250 μl of lysis buffer (50 mM HEPES pH 7.6, 1% Triton X-100) for 30 min at room temperature. Radioactivity in the lysate was quantified by scintillation counting.
Once ^14C-2-deoxy-D-glucose is transported into the cell, it is not released. Glucose transport is, therefore, proportional to the amount of radioactivity in the lysate. The concentration of compound necessary to produce an increase in glucose transport to greater than 150% of the vehicle control (generally representing the sum of the standard deviation of the vehicle control plus the largest standard deviation of a test sample) was recorded as the EC (effective concentration). Shown in FIG. 3 is glucose uptake by cells at various concentrations when treated with Compound 13 and Compound 15.

SMILES | EC (150% of vehicle control) [µM]
CCOP(=O)(O)c1cccc(NS(=O)(=O)c2ccc3ccc(NC(=O)Nc4ccc5ccc(S(=O)(=O)Nc6cccc(P(=O)(O)OCC)c6)cc5c4)cc3c2)c1 [Compound 71, N-[7-({[3-(ethoxy(hydroxyphosphoryl))phenyl]amino}sulfonyl)(2-naphthyl)]{[7-({[3-(ethoxy(hydroxyphosphoryl))phenyl]amino}sulfonyl)(2-naphthyl)]amino}carboxamide] | 3.2

Same assay, conditions: Mus musculus; EC (effective concentration) for increase in glucose transport; 14C-2-deoxy-D-glucose, 3T3 L1 cells; read-out: Concentration (μM) to reach >150% activity of vehicle control

SMILES | EC (150% of vehicle control) [µM]
O=C(O)Cc1cccc(NS(=O)(=O)c2cc(O)c3ccc(NC(=O)Nc4ccc5c(O)cc(S(=O)(=O)Nc6cccc(CC(=O)O)c6)cc5c4)cc3c2)c1 [Compound 52, 2-[3-({[7-({[7-({[3-(carboxymethyl)phenyl]amino}sulfonyl)-5-hydroxy(2-naphthyl)]amino}carbonylamino)-4-hydroxy-2-naphthyl]sulfonyl}amino)phenyl]acetic acid] | 3.2
O=C(Nc1ccc2ccc(S(=O)(=O)Nc3ccc(Br)c(C(=O)O)c3)cc2c1)Nc1ccc2ccc(S(=O)(=O)Nc3ccc(Br)c(C(=O)O)c3)cc2c1 [Compound 56, 2-bromo-5-{[(7-{[N-(7-{[(4-bromo-3-carboxyphenyl)amino]sulfonyl}(2-naphthyl))carbamoyl]amino}(2-naphthyl))sulfonyl]amino}benzoic acid] | 3.2
Cc1ccc(NS(=O)(=O)c2ccc3ccc(NC(=O)Nc4ccc5ccc(S(=O)(=O)Nc6ccc(C)c(C(=O)O)c6)cc5c4)cc3c2)cc1C(=O)O [Compound 57, 5-{[(7-{[N-(7-{[(3-carboxy-4-methylphenyl)amino]sulfonyl}(2-naphthyl))carbamoyl]amino}(2-naphthyl))sulfonyl]amino}-2-methylbenzoic acid] | 3.2
O=C(Nc1ccc2c(O)cc(S(=O)(=O)Nc3cccc(C(=O)O)c3Cl)cc2c1)Nc1ccc2c(O)cc(S(=O)(=O)Nc3cccc(C(=O)O)c3Cl)cc2c1 [Compound 59, 3-{[(7-{[N-(7-{[(3-carboxy-2-chlorophenyl)amino]sulfonyl}-5-hydroxy(2-naphthyl))carbamoyl]amino}-4-hydroxy(2-naphthyl))sulfonyl]amino}-2-chlorobenzoic acid] | 32
O=C(Nc1ccc2c(O)cc(S(=O)(=O)Nc3cc(C(=O)O)ccc3Cl)cc2c1)Nc1ccc2c(O)cc(S(=O)(=O)Nc3cc(C(=O)O)ccc3Cl)cc2c1 [Compound 60, 3-{[(7-{[N-(7-{[(3-carboxy-6-chlorophenyl)amino]sulfonyl}-5-hydroxy(2-naphthyl))carbamoyl]amino}-4-hydroxy(2-naphthyl))sulfonyl]amino}-4-chlorobenzoic acid] | > 32
COc1ccc(NS(=O)(=O)c2ccc3ccc(NC(=O)Nc4ccc5ccc(S(=O)(=O)Nc6ccc(OC)c(C(=O)O)c6)cc5c4)cc3c2)cc1C(=O)O [Compound 62, 5-{[(7-{[N-(7-{[(3-carboxy-4-methoxyphenyl)amino]sulfonyl}(2-naphthyl))carbamoyl]amino}(2-naphthyl))sulfonyl]amino}-2-methoxybenzoic acid] | 10
O=C(Nc1ccc2ccc(S(=O)(=O)Nc3cc(C(=O)O)ccc3O)cc2c1)Nc1ccc2ccc(S(=O)(=O)Nc3cc(C(=O)O)ccc3O)cc2c1 [Compound 64, 3-{[(7-{[N-(7-{[(3-carboxy-6-hydroxyphenyl)amino]sulfonyl}(2-naphthyl))carbamoyl]amino}(2-naphthyl))sulfonyl]amino}-4-hydroxybenzoic acid] | 3.2
COC(=O)c1ccc(OC)c(NS(=O)(=O)c2ccc3ccc(NC(=O)Nc4ccc5ccc(S(=O)(=O)Nc6cc(C(=O)OC)ccc6OC)cc5c4)cc3c2)c1 [Compound 65, methyl 4-methoxy-3-({[7-({[7-({[2-methoxy-5-(methoxycarbonyl)phenyl]amino}sulfonyl)(2-naphthyl)]amino}carbonylamino)(2-naphthyl)]sulfonyl}amino)benzoate] | > 32
COc1ccc(C(=O)O)cc1NS(=O)(=O)c1ccc2ccc(NC(=O)Nc3ccc4ccc(S(=O)(=O)Nc5cc(C(=O)O)ccc5OC)cc4c3)cc2c1 [Compound 66, 3-{[(7-{[(7-{[(3-carboxy-6-methoxyphenyl)amino]sulfonyl}(2-naphthyl))amino]carbonylamino}(2-naphthyl))sulfonyl]amino}-4-methoxybenzoic acid] | 3.2
O=C(Nc1ccc2ccc(S(=O)(=O)Nc3cccc(-c4nnn[nH]4)c3)cc2c1)Nc1ccc2ccc(S(=O)(=O)Nc3cccc(-c4nnn[nH]4)c3)cc2c1 [Compound 67, N-(7-{[(3-(1H-1,2,3,4-tetraazol-5-yl)phenyl)amino]sulfonyl}(2-naphthyl))[(7-{[(3-(1H-1,2,3,4-tetraazol-5-yl)phenyl)amino]sulfonyl}(2-naphthyl))amino]carboxamide] | 3.2
O=C(Nc1ccc2c(O)cc(S(=O)(=O)Nc3cccc(-c4nnn[nH]4)c3)cc2c1)Nc1ccc2c(O)cc(S(=O)(=O)Nc3cccc(-c4nnn[nH]4)c3)cc2c1 [Compound 68, N-(5-hydroxy-7-{[(3-(1H-1,2,3,4-tetraazol-5-yl)phenyl)amino]sulfonyl}(2-naphthyl))[(5-hydroxy-7-{[(3-(1H-1,2,3,4-tetraazol-5-yl)phenyl)amino]sulfonyl}(2-naphthyl))amino]carboxamide] | 3.2
O=C(Nc1ccc2c(O)cc(S(=O)(=O)Nc3ccc(-c4nnn[nH]4)cc3)cc2c1)Nc1ccc2c(O)cc(S(=O)(=O)Nc3ccc(-c4nnn[nH]4)cc3)cc2c1 [Compound 69, N-(5-hydroxy-7-{[(4-(1H-1,2,3,4-tetraazol-5-yl)phenyl)amino]sulfonyl}(2-naphthyl))[(5-hydroxy-7-{[(4-(1H-1,2,3,4-tetraazol-5-yl)phenyl)amino]sulfonyl}(2-naphthyl))amino]carboxamide] | > 32
COC(=O)[C@H](Cc1ccc(O)cc1)NS(=O)(=O)c1ccc2ccc(NC(=O)Nc3ccc4ccc(S(=O)(=O)O)cc4c3)cc2c1 [Compound 72, 7-({[7-({[(1S)-2-(4-hydroxyphenyl)-1-(methoxycarbonyl)ethyl]amino}sulfonyl)-2-naphthyl]amino}carbonylamino)naphthalene-2-sulfonic acid] | 3.2
O=C(Nc1ccc2ccc(S(=O)(=O)O)cc2c1)Nc1ccc2ccc(S(=O)(=O)N[C@@H](Cc3ccc(O)cc3)C(=O)O)cc2c1 [Compound 73, (2S)-3-(4-hydroxyphenyl)-2-{[(7-{[N-(7-sulfo(2-naphthyl))carbamoyl]amino}(2-naphthyl))sulfonyl]amino}propanoic acid] | 10
COC(=O)[C@H](Cc1ccc(O)cc1)NS(=O)(=O)c1ccc2ccc(NC(=O)Nc3ccc4ccc(S(=O)(=O)N[C@@H](Cc5ccc(O)cc5)C(=O)OC)cc4c3)cc2c1 [Compound 74, methyl (2S)-2-({[7-({N-[7-({[(1S)-2-(4-hydroxyphenyl)-1-(methoxycarbonyl)ethyl]amino}sulfonyl)(2-naphthyl)]carbamoyl}amino)(2-naphthyl)]sulfonyl}amino)-3-(4-hydroxyphenyl)propanoate] | 3.2
O=C(Nc1ccc2ccc(S(=O)(=O)N[C@@H](Cc3ccc(O)cc3)C(=O)O)cc2c1)Nc1ccc2ccc(S(=O)(=O)N[C@@H](Cc3ccc(O)cc3)C(=O)O)cc2c1 [Compound 75, (2S)-2-({[7-({N-[7-({[(1S)-1-carboxy-2-(4-hydroxyphenyl)ethyl]amino}sulfonyl)(2-naphthyl)]carbamoyl}amino)(2-naphthyl)]sulfonyl}amino)-3-(4-hydroxyphenyl)propanoic acid] | 3.2
O=C(Nc1ccc2ccc(S(=O)(=O)O)cc2c1)Nc1ccc2ccc(S(=O)(=O)Nc3ncccn3)cc2c1 [Compound 78, 7-[({7-[(pyrimidin-2-ylamino)sulfonyl]-2-naphthyl}amino)carbonylamino]naphthalene-2-sulfonic acid] | 10
O=C(Nc1ccc2ccc(S(=O)(=O)Nc3ncccn3)cc2c1)Nc1ccc2ccc(S(=O)(=O)Nc3ncccn3)cc2c1 [Compound 79, N-{7-[(pyrimidin-2-ylamino)sulfonyl](2-naphthyl)}({7-[(pyrimidin-2-ylamino)sulfonyl](2-naphthyl)}amino)carboxamide] | 10
O=C(Nc1ccc2ccc(S(=O)(=O)Nc3cnccn3)cc2c1)Nc1ccc2ccc(S(=O)(=O)Nc3cnccn3)cc2c1 [Compound 80, N-{7-[(pyrazin-2-ylamino)sulfonyl](2-naphthyl)}({7-[(pyrazin-2-ylamino)sulfonyl](2-naphthyl)}amino)carboxamide] | 3.2
